Measured values as given in PMC5785531, “Pharmacokinetic parameters explain the therapeutic activity of antimicrobial agents in a silkworm infection model” (Scientific Reports, 2018).
Converted amounts (≈) assume the structure as drawn.

How the values were obtained:
[1] = Pharmacokinetics in silkworm hemolymph after intra-hemolymph injection; type: in vivo, Silkworms (Bombyx mori); conditions: for Cmax / AUC(0-t) / k el / AUC(0-inf) / C0 / clearance / MRT inf / Vd / half-life: Hu•Yo × Tsukuba•Ne, 50 ug, injected dose 50 μg intra-hemolymph; for AUC(0-t): 0 to last measured value (5 h); for k el: PKSolver non-compartment analysis, read-out: Lambda_z (converted); for AUC(0-inf): extrapolated to infinity; for C0: read-out: C0 (initial concentration, extrapolated time-zero value); for clearance: read-out: Cl (total clearance); for MRT inf: read-out: MRT 0-inf (mean residence time) (converted); for Vd: read-out: Vss (volume of distribution at steady state); for half-life: read-out: t1/2 (half-life at terminal phase)
Protocol: To gain an insight into the reason for the difference in the therapeutic activities of compounds 5 and 7, we evaluated the pharmacokinetic properties of both compounds in vivo in silkworms. We injected silkworms into the hemolymph with compound 5 or compound 7 (50 µg each) and collected the hemolymph from each injected silkworm at different time-points for high performance liquid chromatography (HPLC) analysis. The concentration-time profile was plotted and the pharmacokinetic parameters were analyzed using PKSolver[32] (Fig. 3a,b). […] The volume of distribution at steady state (Vss) value of compound 7 was larger than that of compound 5, further indicating the higher distribution capacity of compound 7 compared with compound 5. The concentrations of compounds 5 and 7 in the hemolymph decreased with time, with compound 7 having faster rate of elimination than compound 5. At 5 h, the concentration of compound 5 in the hemolymph was approximately 10-fold higher than that of 7. […] Both the area under the curves (AUC) at 5 h and that extrapolated to infinity were higher for compound 5 than for compound 7 in the silkworm.
Silkworms larvae hatched from eggs (Hu•Yo × Tsukuba•Ne, Ehime Sanshu, Ehime, Japan) were fed Silkmate 2S (Nosan Corporation, Yokohama, Japan) and grown at 27 °C until the fourth molt stage. They were, then, fed an antibiotic-free artificial food, Silkmate (Katakura Industries Co., Ltd., Tokyo, Japan), on the first day of fifth-instar larval stage. The next day, larvae (~2 g) were injected into the hemolymph with 50 µg of compounds 5 and 7 using a 1 ml syringe with a 27 G needle (Terumo Corporation, Tokyo, Japan). Silkworms were incubated after injection at 27 °C without feeding. The hemolymph was harvested from the limbs of individual silkworms at the indicated time, and the silkworms were killed after the harvest. The harvested hemolymph was mixed with an equal volume of acetonitrile followed by centrifugation at 15, 000 rpm for 10 min at 4 °C. The supernatant was collected, evaporated, and dissolved into 50% acetonitrile. The samples thus prepared were analyzed by high performance liquid chromatography (HPLC) equipped with a Waters 2998 Photodiode Array Detector (Waters Corporation, Milford, MA, USA) and a Waters 2707 Autosampler (Waters) using a Senshu-Pak Pegasil ODS-SP-100 column (4.6 Ø × 250 mm; Senshu Scientific, Tokyo, Japan) with gradient elution of 50–100% acetonitrile for 30 min at a flow rate of 1 ml/min. Standard curves for each compound were drawn by measuring the peak area on HPLC charts, and the amounts of each compound in the sample were determined. Mean concentrations from triplicate experiments were determined for each time-point and the pharmacokinetic parameters were determined using the PKSolver 2.0 ‘add-in’ for Excel 2007 on a computer running Windows 7[32]. Non-compartment analysis was performed with area under the curve calculated using the linear trapezoidal method. The terminal elimination slope, λz was calculated based on default parameters. Statistical analysis was performed using Prism 5 for Mac OS X, version 5.0 f (GraphPad Software, La Jolla, CA).

[2] = tested on: Streptococcus pneumoniae (clinical isolate); assay: MIC by broth microdilution assay; type: cell-based; conditions: MHB with 2.5% lysed horse blood, 24 h, median of three experiments
Protocol: (§1) Antimicrobial activity was assessed by determining the MIC by broth dilution assay according to our previous reports[21],[35],[36] as per the Clinical and Laboratory Standards Institute[37]. Briefly, serial dilutions of compound 5, compound 7, and positive controls were prepared in cation-adjusted Mueller-Hinton Broth (MHB, Difco, Franklin Lakes, NJ, USA), 100 µl of which was dispensed into each well of a round-bottomed 96-well plate. The final concentrations in the well ranged from 128 µg/ml to 0.0625 µg/ml. Bacteria were grown at 37 °C overnight on either Luria Bertani (tryptone 10 g/l, yeast extract 5 g/l, NaCl 10 g/l) or Tryptic Soy Broth (TSB, Difco) agar plates or sheep blood agar plates (Eiken Chemical Co. Ltd., Tokyo, Japan). Bacterial inoculum was prepared by direct suspension of the colonies in 0.9% saline, and adjusted to obtain a turbidity equivalent to a 0.5 McFarland standard using a spectrophotometer UV-1280 (Shimadzu Corp., Kyoto, Japan). The suspension was then diluted 1:20 in cation-adjusted MHB (Difco), and 10 µl of it was inoculated into each well of previously prepared 96-well plates containing compounds to […] […] Vancomycin (Wako Pure Chemicals) or norfloxacin (Sigma Aldrich, St Louis, MO, USA) were used as positive controls. Each plate contained a growth control well and a vehicle control well. The MIC was determined as the minimum concentration that inhibited the growth of the bacteria.

[3] = tested on: Streptococcus agalactiae JCM5671; assay: MIC by broth microdilution assay; type: cell-based; conditions: MHB with 2.5% lysed horse blood, 24 h, median of three experiments
Protocol: as §1

S. aureus MRSA4 = assay: MIC against S. aureus MRSA4 in vitro (broth dilution); type: cell-based; conditions: Staphylococcus aureus
Excerpt: We synthesized 50 compounds (Fig. 2, Supplementary Table 1) using the Steglich esterification scheme[31] in the presence of a […], 1-ethyl-3-(3-dimethylaminopropyl)-carbodiimide hydrochloride (Fig. 1b). Antimicrobial activities of the compounds were examined by determining the MIC against S. aureus MRSA4 in vitro; therapeutic activities were examined using a systemic infection model of silkworms infected with S. aureus MSSA1. […]
Antimicrobial activity was assessed by determining the MIC by broth dilution assay according to our previous reports[21],[35],[36] as per the Clinical and Laboratory Standards Institute[37]. Briefly, serial dilutions of compound 5, compound 7, and positive controls were prepared in cation-adjusted Mueller-Hinton Broth (MHB, Difco, Franklin Lakes, NJ, USA), 100 µl of which was dispensed into each well of a round-bottomed 96-well plate. The final concentrations in the well ranged from 128 µg/ml to 0.0625 µg/ml. Bacteria were grown at 37 °C overnight on either Luria Bertani (tryptone 10 g/l, yeast extract 5 g/l, NaCl 10 g/l) or Tryptic Soy Broth (TSB, Difco) agar plates or sheep blood agar plates (Eiken Chemical Co. Ltd., Tokyo, Japan). Bacterial inoculum was prepared by direct suspension of the colonies in 0.9% saline, and adjusted to obtain a turbidity equivalent to a 0.5 McFarland standard using a spectrophotometer UV-1280 (Shimadzu Corp., Kyoto, Japan). The suspension was then diluted 1:20 in cation-adjusted MHB (Difco), and 10 µl of it was inoculated into each well of previously prepared 96-well plates containing compounds to obtain approximately 5 × 10^4 colony forming units/well and incubated at 37 °C for 20 h. […] Vancomycin (Wako Pure Chemicals) or norfloxacin (Sigma Aldrich, St Louis, MO, USA) were used as positive controls. Each plate contained a growth control well and a vehicle control well. The MIC was determined as the minimum concentration that inhibited the growth of the bacteria.

[4] = MRSA, MRSA4 (clinical isolate), median of three experiments (Table 1)
[5] = S. aureus MRSA4 in vitro, SAR series (Fig. 2)

## O=C(OCc1cc(Cl)cc(Cl)c1)c1ccc([N+](=O)[O-])s1 [compound 5]
[1]
  Cmax: 23000 ng/mL
  AUC(0-t): 3000 ng·h/mL
  k el: 8.33e-05 s⁻¹
  AUC(0-inf): 3480 ng·h/mL
  C0: 24000 ng/mL
  clearance: 0.23 mL/min
  MRT inf: 2.08 h
  Vd: 0.03 L
  half-life: 2.33 h
[1]; at 5 h after injection of 50 µg
  concentration in the hemolymph relative to compound 7: approximately 10 fold
[2]
  MIC: 1 µg/mL (≈ 3.01 µM)
[3]
  MIC: > 128 µg/mL
S. aureus MRSA4; [4]
  MIC: 0.5 µg/mL (≈ 1.51 µM)
S. aureus MRSA4; [5]
  MIC: 0.5 µg/mL (≈ 1.51 µM)

## O=C(OCc1ccccc1)c1ccc([N+](=O)[O-])s1 [compound 7]
[1]
  Cmax: 7000 ng/mL
  AUC(0-t): 733 ng·h/mL
  k el: 0.000217 s⁻¹
  AUC(0-inf): 733 ng·h/mL
  C0: 7000 ng/mL
  clearance: 1.1 mL/min
  MRT inf: 0.733 h
  Vd: 0.044 L
  half-life: 0.883 h
[2]
  MIC: 1 µg/mL (≈ 3.8 µM)
[3]
  MIC: > 128 µg/mL
S. aureus MRSA4; [4]
  MIC: 1 µg/mL (≈ 3.8 µM)
S. aureus MRSA4; [5]
  MIC: 1 µg/mL (≈ 3.8 µM)
